Key:
Assay type in all cases: cell-based
M2 muscarinic receptor = target: T1, M2 muscarinic receptor (Homo sapiens, UniProt P08172); assay: Functional mobilization of intracellular calcium (FLIPR), M2-CHO cells; conditions: for Emax: 100% efficacy is the maximum response obtained with the Carbachol control; for M2 Activity: M2-CHO cells, calcium mobilization (FLIPR)
T1 construct: expressed in transfected cells; host or cells: CHO (M2-CHO)
T1 sequence (P08172 1-466): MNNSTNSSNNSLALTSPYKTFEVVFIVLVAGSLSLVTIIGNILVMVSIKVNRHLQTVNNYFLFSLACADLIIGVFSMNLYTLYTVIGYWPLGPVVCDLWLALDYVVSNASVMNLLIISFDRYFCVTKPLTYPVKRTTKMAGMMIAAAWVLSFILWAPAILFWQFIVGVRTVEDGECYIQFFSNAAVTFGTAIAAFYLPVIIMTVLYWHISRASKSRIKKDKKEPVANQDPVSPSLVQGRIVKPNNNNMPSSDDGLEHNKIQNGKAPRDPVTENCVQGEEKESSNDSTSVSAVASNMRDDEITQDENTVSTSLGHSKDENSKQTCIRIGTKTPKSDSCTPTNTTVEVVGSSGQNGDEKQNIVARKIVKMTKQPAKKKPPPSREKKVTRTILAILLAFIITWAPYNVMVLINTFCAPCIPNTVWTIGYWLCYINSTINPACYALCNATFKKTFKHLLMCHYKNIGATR
Summary of the method: (§1)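 Calcium mobilisation read by FLIPR over 60 s (ex 488/em 540 nm) in recombinant muscarinic CHO lines loaded with calcium dye plus 1 mM probenecid. Compounds tested as agonists alone, or as inhibitors against EC80 carbachol after 15 min pre-incubation or co-addition; 0.5% DMSO; efficacy scaled to carbachol maximal response.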

M4 muscarinic receptor = target: T2, M4 muscarinic receptor (Homo sapiens, UniProt P08173); assay: Functional mobilization of intracellular calcium (FLIPR), M4-CHO cells; conditions: for Emax: 100% efficacy is the maximum response obtained with the Carbachol control; for M4 Activity: M4-CHO cells, calcium mobilization (FLIPR)
T2 construct: expressed in transfected cells; host or cells: CHO (M4-CHO)
T2 sequence (P08173 1-479): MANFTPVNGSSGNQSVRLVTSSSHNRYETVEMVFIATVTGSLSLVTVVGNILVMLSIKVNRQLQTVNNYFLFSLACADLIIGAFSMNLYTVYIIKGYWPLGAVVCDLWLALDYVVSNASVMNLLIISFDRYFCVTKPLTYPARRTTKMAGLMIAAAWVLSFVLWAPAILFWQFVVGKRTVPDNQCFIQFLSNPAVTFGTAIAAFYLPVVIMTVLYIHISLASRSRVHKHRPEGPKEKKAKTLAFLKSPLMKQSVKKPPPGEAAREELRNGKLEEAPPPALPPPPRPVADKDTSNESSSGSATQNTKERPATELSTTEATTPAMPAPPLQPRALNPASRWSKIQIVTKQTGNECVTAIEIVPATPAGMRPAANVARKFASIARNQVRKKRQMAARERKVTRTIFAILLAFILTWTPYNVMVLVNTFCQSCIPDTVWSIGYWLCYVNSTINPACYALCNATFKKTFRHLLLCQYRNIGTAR
Summary of the method: as §1

M1 muscarinic receptor = target: T3, M1 muscarinic receptor (Homo sapiens, UniProt P11229); assay: Functional mobilization of intracellular calcium (FLIPR), M1-CHO cells; conditions: for Emax: 100% efficacy is the maximum response obtained with the Carbachol control; for M1 Activity: M1-CHO cells, calcium mobilization (FLIPR)
T3 construct: expressed in transfected cells; host or cells: CHO (M1-CHO)
T3 sequence (P11229 1-460): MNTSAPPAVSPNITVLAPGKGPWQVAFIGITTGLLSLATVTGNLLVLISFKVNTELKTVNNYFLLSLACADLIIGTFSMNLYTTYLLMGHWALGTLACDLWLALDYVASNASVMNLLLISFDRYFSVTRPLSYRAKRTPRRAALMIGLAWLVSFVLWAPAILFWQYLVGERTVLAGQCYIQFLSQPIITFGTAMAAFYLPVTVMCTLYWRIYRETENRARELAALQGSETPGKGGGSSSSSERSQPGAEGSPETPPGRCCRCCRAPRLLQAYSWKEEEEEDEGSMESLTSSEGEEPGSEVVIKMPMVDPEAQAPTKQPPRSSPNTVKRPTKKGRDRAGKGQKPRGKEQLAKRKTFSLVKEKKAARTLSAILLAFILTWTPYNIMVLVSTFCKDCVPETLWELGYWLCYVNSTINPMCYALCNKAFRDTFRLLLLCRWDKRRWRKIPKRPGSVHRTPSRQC
Summary of the method: as §1

M3 muscarinic receptor = target: T4, M3 muscarinic receptor (Homo sapiens, UniProt P20309); assay: Functional mobilization of intracellular calcium (FLIPR), M3-CHO cells; conditions: for Emax: 100% efficacy is the maximum response obtained with the Carbachol control; for M3 Activity: M3-CHO cells, calcium mobilization (FLIPR)
T4 construct: expressed in transfected cells; host or cells: CHO (M3-CHO)
Summary of the method: as §1

T4 sequence (P20309 whole entry): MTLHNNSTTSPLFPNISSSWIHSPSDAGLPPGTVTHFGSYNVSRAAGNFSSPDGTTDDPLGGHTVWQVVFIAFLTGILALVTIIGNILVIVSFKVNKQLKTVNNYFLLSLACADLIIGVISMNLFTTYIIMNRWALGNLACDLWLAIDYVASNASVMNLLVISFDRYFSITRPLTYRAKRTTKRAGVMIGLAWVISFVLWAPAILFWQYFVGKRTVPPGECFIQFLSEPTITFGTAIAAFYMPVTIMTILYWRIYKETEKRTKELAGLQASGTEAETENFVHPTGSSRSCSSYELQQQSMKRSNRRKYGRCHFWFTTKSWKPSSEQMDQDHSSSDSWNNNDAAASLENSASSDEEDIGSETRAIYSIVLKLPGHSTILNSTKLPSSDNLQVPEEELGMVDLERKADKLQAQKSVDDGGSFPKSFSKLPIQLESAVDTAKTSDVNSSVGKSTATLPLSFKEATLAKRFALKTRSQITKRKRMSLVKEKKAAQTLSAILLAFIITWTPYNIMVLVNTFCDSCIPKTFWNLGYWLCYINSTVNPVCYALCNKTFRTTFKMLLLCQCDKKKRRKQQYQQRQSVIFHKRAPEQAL

Structure (SMILES) | Emax (M2 muscarinic receptor) | M2 Activity (M2 muscarinic receptor) | Emax (M4 muscarinic receptor) | M4 Activity (M4 muscarinic receptor) | Emax (M1 muscarinic receptor) | M1 Activity (M1 muscarinic receptor) | Emax (M3 muscarinic receptor) | M3 Activity (M3 muscarinic receptor)
COc1cccc(-c2ccccc2C2CCN([C@H]3C[C@H]4CC[C@H]3C4)CC2)c1OC [Compound 402] | < 25% | + (activity was measured to be greater than 5.0 μM) | 25 to 100% | ++ (activity was measured to be from 1.0 μM to 5.0 μM) | < 25% | + (activity was measured to be greater than 5.0 μM) | < 25% | + (activity was measured to be greater than 5.0 μM)
COc1ccc(-c2ccc(C(C)(C)C#N)cc2)cc1C1CCN(C2C[C@H]3CC[C@H]2C3)CC1 (stereo partly shown) [Compound 403] | < 25% | + (activity was measured to be greater than 5.0 μM) | 25 to 100% | ++ (activity was measured to be from 1.0 μM to 5.0 μM) | 25 to 100% | + (activity was measured to be greater than 5.0 μM) | < 25% | + (activity was measured to be greater than 5.0 μM)
C=Cc1ccc(OC)c(C2CCN([C@@H]3C[C@H]4CC[C@H]3C4)CC2)c1 [Compound 404] | < 25% | + (activity was measured to be greater than 5.0 μM) | 25 to 100% | +++ (activity was measured to be less than 1.0 μM) | 25 to 100% | ++ (activity was measured to be from 1.0 μM to 5.0 μM) | < 25% | + (activity was measured to be greater than 5.0 μM)
CCOC(=O)N1CCC(CN2CCC(c3ccccc3C(F)(F)F)CC2)CC1 [Compound 405] | 25 to 100% | ++ (activity was measured to be from 1.0 μM to 5.0 μM) | > 100% | +++ (activity was measured to be less than 1.0 μM) | 25 to 100% | +++ (activity was measured to be less than 1.0 μM) | < 25% | + (activity was measured to be greater than 5.0 μM)
CCOC(=O)N1C2CCC1CC(N1CCC(c3cc(Cl)ccc3OC)CC1)C2 (stereo not shown) [Compound 406] | 25 to 100% | +++ (activity was measured to be less than 1.0 μM) | 25 to 100% | +++ (activity was measured to be less than 1.0 μM) | 25 to 100% | +++ (activity was measured to be less than 1.0 μM) | 25 to 100% | + (activity was measured to be greater than 5.0 μM)
COc1ccc(-c2ccc(C(N)=O)cc2)cc1C1CCN([C@H]2C[C@H]3CC[C@H]2C3)CC1 [Compound 407] | < 25% | + (activity was measured to be greater than 5.0 μM) | 25 to 100% | +++ (activity was measured to be less than 1.0 μM) | < 25% | + (activity was measured to be greater than 5.0 μM) | < 25% | + (activity was measured to be greater than 5.0 μM)
COc1ccccc1C1CCN(C2C3CC4CC(C3)CC2C4)CC1 (stereo not shown) [Compound 408] | < 25% | + (activity was measured to be greater than 5.0 μM) | 25 to 100% | +++ (activity was measured to be less than 1.0 μM) | 25 to 100% | + (activity was measured to be greater than 5.0 μM) | < 25% | + (activity was measured to be greater than 5.0 μM)
COc1ccc(Cl)cc1C1(F)CCN(C2CCCCC2)CC1 [Compound 409] | 25 to 100% | + (activity was measured to be greater than 5.0 μM) | 25 to 100% | ++ (activity was measured to be from 1.0 μM to 5.0 μM) | 25 to 100% | + (activity was measured to be greater than 5.0 μM) | < 25% | + (activity was measured to be greater than 5.0 μM)
COc1ccccc1C1CCN(C2CCC(OC(=O)c3ccccc3)CC2)CC1 (stereo not shown) [Compound 410] | < 25% | + (activity was measured to be greater than 5.0 μM) | 25 to 100% | ++ (activity was measured to be from 1.0 μM to 5.0 μM) | < 25% | + (activity was measured to be greater than 5.0 μM) | < 25% | + (activity was measured to be greater than 5.0 μM)
CCOC(=O)N1CCC(CN2CCC(c3cc(-c4ccc(S(=O)(=O)N5CCCC5)cc4)ccc3OC)CC2)CC1 [Compound 411] | < 25% | + (activity was measured to be greater than 5.0 μM) | < 25% | +++ (activity was measured to be less than 1.0 μM) | 25 to 100% | +++ (activity was measured to be less than 1.0 μM) | < 25% | + (activity was measured to be greater than 5.0 μM)
COc1ccc(-c2ccsc2)cc1C1CCN([C@@H]2C[C@H]3CC[C@H]2C3)CC1 [Compound 414] | < 25% | + (activity was measured to be greater than 5.0 μM) | 25 to 100% | ++ (activity was measured to be from 1.0 μM to 5.0 μM) | < 25% | + (activity was measured to be greater than 5.0 μM) | < 25% | + (activity was measured to be greater than 5.0 μM)
N#Cc1ccc(C2CCN(C3CCOCC3)CC2)cc1 [Compound 415] | < 25% | + (activity was measured to be greater than 5.0 μM) | 25 to 100% | + (activity was measured to be greater than 5.0 μM) | < 25% | + (activity was measured to be greater than 5.0 μM) | < 25% | + (activity was measured to be greater than 5.0 μM)
COc1ccc(C(=O)c2ccoc2)cc1C1CCN([C@@H]2C[C@H]3CC[C@H]2C3)CC1 [Compound 416] | < 25% | + (activity was measured to be greater than 5.0 μM) | 25 to 100% | ++ (activity was measured to be from 1.0 μM to 5.0 μM) | < 25% | + (activity was measured to be greater than 5.0 μM) | < 25% | + (activity was measured to be greater than 5.0 μM)
CCON=C1CCC(N2CCC(c3cc(Cl)ccc3OC)CC2)CC1 (stereo not shown) [Compound 417, 4-(4-(5-chloro-2-methoxyphenyl)piperidin-1-yl)cyclohexanone O-ethyl oxime] | 25 to 100% | +++ (activity was measured to be less than 1.0 μM) | > 100% | +++ (activity was measured to be less than 1.0 μM) | 25 to 100% | +++ (activity was measured to be less than 1.0 μM) | 25 to 100% | + (activity was measured to be greater than 5.0 μM)

Source: patent publication US7880007B2, “Bicyclic substituted phenyl piperidine modulators of muscarinic receptors” (Vertex Pharmaceuticals Incorporated, priority 2004, dated 2011)
